Results as given in PMC9516332 (Frontiers in Oncology, 2022).
Where two headings read alike, the source gives them in different places.

How the values were obtained:
[1] = target: panel of 255 wild-type kinases (Homo sapiens, UniProt Q9H422); assay: Kinase panel profiling at 1 µmol/L (MSA or IMAP), percentage inhibition; assay type: biochemical; details: kinase HIPK3; 1 µmol/L single concentration; read-out: %-inhibition at 1 µmol/L, HIPK3
[2] = target: panel of 255 wild-type kinases (Homo sapiens, UniProt Q16816); assay: as above; assay type: biochemical; details: kinase PHKG1; 1 µmol/L single concentration; read-out: %-inhibition at 1 µmol/L, PHKG1
[3] = target: panel of 255 wild-type kinases (Homo sapiens, UniProt P48729); assay: as above; assay type: biochemical; details: kinase CK1α; 1 µmol/L single concentration; read-out: %-inhibition at 1 µmol/L, CK1α
[4] = target: panel of 255 wild-type kinases (Homo sapiens, UniProt P06241); assay: as above; assay type: biochemical; details: kinase FYN [isoform a]; 1 µmol/L single concentration; read-out: %-inhibition at 1 µmol/L, FYN [isoform a]
[5] = target: panel of 255 wild-type kinases (Homo sapiens, UniProt Q13882); assay: as above; assay type: biochemical; details: BRK kinase assay; 1 µmol/L single concentration; read-out: %-inhibition BRK
AP-1060 (ETV6-NTRK3) = assay: Cell viability assay; details: read-out: IC50 in cell proliferation assay
134 cancer cell lines = assay: Cell viability assay (ATPlite, 72 hours), IC50 on cancer cell line panel

For CCc1nc(C(N)=O)c(Nc2ccc(N3CCC(N4CCN(C)CC4)CC3)c(OC)c2)nc1NC1CCOCC1 [gilteritinib], the inhibition at 1 µM [1] was 66%, the inhibition at 1 µM [2] was 92% and the inhibition at 1 µM [3] was 13%. For the same molecule, the inhibition at 1 µM [4] was 84%, the inhibition at 1 µM [5] was 98% and the IC50 (AP-1060 (ETV6-NTRK3)) was 417 nM. For the same molecule, the IC50 (134 cancer cell lines; HEC-6, read-out: IC50 in cell proliferation assay, HEC-6 cell line (EGFR p.A289V)) was 1430 nM, the IC50 (134 cancer cell lines; Homo sapiens, 769-P, read-out: IC50 in cell proliferation assay, cell line 769-P) was 1150 nM and the IC50 (134 cancer cell lines; Homo sapiens, 786-0, read-out: IC50 in cell proliferation assay, cell line 786-O) was 947 nM. For the same molecule, the IC50 (134 cancer cell lines; Homo sapiens, A 172, read-out: IC50 in cell proliferation assay, cell line A-172) was 1630 nM, the IC50 (134 cancer cell lines; Homo sapiens, A204, read-out: IC50 in cell proliferation assay, cell line A-204) was 392 nM and the IC50 (134 cancer cell lines; Homo sapiens, A498, read-out: IC50 in cell proliferation assay, cell line A-498) was 552 nM. The IC50 (134 cancer cell lines; Homo sapiens, A549, read-out: IC50 in cell proliferation assay, cell line A-549) was 630 nM, the IC50 (134 cancer cell lines; Homo sapiens, A704, read-out: IC50 in cell proliferation assay, cell line A-704) was 962 nM and the IC50 (134 cancer cell lines; Homo sapiens, A-375, read-out: IC50 in cell proliferation assay, cell line A-375 (BRAF p.V600E)) was 400 nM. The IC50 (134 cancer cell lines; Homo sapiens, A-427, read-out: IC50 in cell proliferation assay, cell line A-427) was 248 nM, the IC50 (134 cancer cell lines; Homo sapiens, ACHN, read-out: IC50 in cell proliferation assay, cell line ACHN) was 294 nM and the IC50 (134 cancer cell lines; Homo sapiens, AN3-CA, read-out: IC50 in cell proliferation assay, cell line AN3-CA (FGFR2 p.N549K)) was 1220 nM. For the same molecule, the IC50 (134 cancer cell lines; Homo sapiens, ASPC1, read-out: IC50 in cell proliferation assay, cell line AsPC-1) was 545 nM, the IC50 (134 cancer cell lines; Homo sapiens, AU565, read-out: IC50 in cell proliferation assay, cell line AU565 (ERBB2 amplification)) was 1310 nM and the IC50 (134 cancer cell lines; Homo sapiens, BT-20, read-out: IC50 in cell proliferation assay, cell line BT-20) was 4220 nM. The IC50 (134 cancer cell lines; Homo sapiens, BT-474, read-out: IC50 in cell proliferation assay, cell line BT-474 (ERBB2 amplification)) was 13900 nM, the IC50 (134 cancer cell lines; Homo sapiens, BT-549, read-out: IC50 in cell proliferation assay, cell line BT-549) was 469 nM and the IC50 (134 cancer cell lines; Homo sapiens, BXPC-3, read-out: IC50 in cell proliferation assay, cell line BxPC-3) was 409 nM. The IC50 (134 cancer cell lines; Homo sapiens, C-33-A, read-out: IC50 in cell proliferation assay, cell line C-33 A) was 344 nM, the IC50 (134 cancer cell lines; Homo sapiens, CAL-27, read-out: IC50 in cell proliferation assay, cell line CAL-27) was 366 nM and the IC50 (134 cancer cell lines; Homo sapiens, CCF-STTG1, read-out: IC50 in cell proliferation assay, cell line CCF-STTG1) was 4060 nM. For the same molecule, the IC50 (134 cancer cell lines; Homo sapiens, CCRF-CEM, read-out: IC50 in cell proliferation assay, cell line CCRF-CEM) was 1690 nM, the IC50 (134 cancer cell lines; Homo sapiens, COLO 205, read-out: IC50 in cell proliferation assay, cell line COLO 205 (BRAF p.V600E)) was 1060 nM and the IC50 (134 cancer cell lines; Homo sapiens, COLO-829, read-out: IC50 in cell proliferation assay, cell line COLO 829 (BRAF p.V600E)) was 1220 nM. It also gave an IC50 (134 cancer cell lines; Homo sapiens, DLD-1, read-out: IC50 in cell proliferation assay, cell line DLD-1) of 746 nM, an IC50 (134 cancer cell lines; Homo sapiens, DU-4475, read-out: IC50 in cell proliferation assay, cell line DU4475 (BRAF p.V600E)) of 1440 nM and an IC50 (134 cancer cell lines; Homo sapiens, Daoy, read-out: IC50 in cell proliferation assay, cell line Daoy) of 3210 nM. The IC50 (134 cancer cell lines; Homo sapiens, DoTc2-4510, read-out: IC50 in cell proliferation assay, cell line DoTc2 4510) was 318 nM, the IC50 (134 cancer cell lines; Homo sapiens, EOL1, read-out: IC50 in cell proliferation assay, cell line EoL-1 (FIP1L1-PDGFRA)) was 33 nM and the IC50 (134 cancer cell lines; Homo sapiens, FaDu, read-out: IC50 in cell proliferation assay, cell line FaDu) was 459 nM. It also gave an IC50 (134 cancer cell lines; Homo sapiens, G-361, read-out: IC50 in cell proliferation assay, cell line G-361 (BRAF p.V600E)) of 328 nM, an IC50 (134 cancer cell lines; Homo sapiens, HCC827, read-out: IC50 in cell proliferation assay, cell line HCC827 (EGFR exon19del)) of 223 nM and an IC50 (134 cancer cell lines; Homo sapiens, HCC4006, read-out: IC50 in cell proliferation assay, cell line HCC4006 (EGFR exon19del)) of 540 nM. The IC50 (134 cancer cell lines; Homo sapiens, HCT-15, read-out: IC50 in cell proliferation assay, cell line HCT 15) was 829 nM, the IC50 (134 cancer cell lines; Homo sapiens, HCT-116, read-out: IC50 in cell proliferation assay, cell line HCT 116) was 418 nM and the IC50 (134 cancer cell lines; Homo sapiens, HEC-1, read-out: IC50 in cell proliferation assay, HEC-1 cell line) was 462 nM. For the same molecule, the IC50 (134 cancer cell lines; Homo sapiens, HEC-1B, read-out: IC50 in cell proliferation assay, HEC-1-B cell line (EGFR p.A864V)) was 270 nM, the IC50 (134 cancer cell lines; Homo sapiens, HL-60, read-out: IC50 in cell proliferation assay, HL-60 cell line) was 438 nM and the IC50 (134 cancer cell lines; Homo sapiens, HT, read-out: IC50 in cell proliferation assay, HT cell line) was 3410 nM. For the same molecule, the IC50 (134 cancer cell lines; Homo sapiens, HT-1080, read-out: IC50 in cell proliferation assay, HT-1080 cell line) was 202 nM, the IC50 (134 cancer cell lines; Homo sapiens, Hs746T, read-out: IC50 in cell proliferation assay, Hs 746.T cell line (MET exon14skip + amplification)) was 512 nM and the IC50 (134 cancer cell lines; Homo sapiens, Hs-578T, read-out: IC50 in cell proliferation assay, Hs 578T cell line) was 1190 nM. For the same molecule, the IC50 (134 cancer cell lines; Homo sapiens, HuTu80, read-out: IC50 in cell proliferation assay, HuTu 80 cell line) was 509 nM, the IC50 (134 cancer cell lines; Homo sapiens, J82, read-out: IC50 in cell proliferation assay, J82 cell line) was 372 nM and the IC50 (134 cancer cell lines; Homo sapiens, Jurkat E6.1, read-out: IC50 in cell proliferation assay, Jurkat E6.1 cell line) was 749 nM. For the same molecule, the IC50 (134 cancer cell lines; Homo sapiens, K562, read-out: IC50 in cell proliferation assay, K-562 cell line) was 1540 nM, the IC50 (134 cancer cell lines; Homo sapiens, KATO III, read-out: IC50 in cell proliferation assay, KATO III cell line (FGFR2 amplification)) was 718 nM and the IC50 (134 cancer cell lines; Homo sapiens, KG-1, read-out: IC50 in cell proliferation assay, KG-1 cell line (FGFR1OP2-FGFR1)) was 392 nM. The IC50 (134 cancer cell lines; Homo sapiens, KLE, read-out: IC50 in cell proliferation assay, KLE cell line) was 317 nM, the IC50 (134 cancer cell lines; Homo sapiens, KMS-11, read-out: IC50 in cell proliferation assay, KMS-11 cell line (FGFR3 p.Y373C)) was 912 nM and the IC50 (134 cancer cell lines; Homo sapiens, KU812, read-out: IC50 in cell proliferation assay, Ku812 cell line) was 1510 nM. It also gave an IC50 (134 cancer cell lines; Homo sapiens, Kasumi 1, read-out: IC50 in cell proliferation assay, Kasumi-1 cell line (KIT p.N822K)) of 219 nM, an IC50 (134 cancer cell lines; Homo sapiens, LC-2-ad, read-out: IC50 in cell proliferation assay, LC-2/ad cell line (CCDC6-RET)) of 158 nM and an IC50 (134 cancer cell lines; Homo sapiens, LNCaP-Clone-FGC, read-out: IC50 in cell proliferation assay, LNCaP clone FGC cell line) of 6820 nM. For the same molecule, the IC50 (134 cancer cell lines; Homo sapiens, LS174T, read-out: IC50 in cell proliferation assay, LS174T cell line) was 652 nM, the IC50 (134 cancer cell lines; Homo sapiens, LS-411N, read-out: IC50 in cell proliferation assay, LS411N cell line (BRAF p.V600E)) was 1150 nM and the IC50 (134 cancer cell lines; Homo sapiens, LoVo, read-out: IC50 in cell proliferation assay, LoVo cell line) was 413 nM. For the same molecule, the IC50 (134 cancer cell lines; Homo sapiens, MCF7, read-out: IC50 in cell proliferation assay, MCF-7 cell line) was 514 nM, the IC50 (134 cancer cell lines; Homo sapiens, MDA-MB-231, read-out: IC50 in cell proliferation assay, MDA-MB-231 cell line) was 1500 nM and the IC50 (134 cancer cell lines; Homo sapiens, MDA-MB-453, read-out: IC50 in cell proliferation assay, MDA-MB-453 cell line) was 8820 nM. The IC50 (134 cancer cell lines; Homo sapiens, MDA-MB-468, read-out: IC50 in cell proliferation assay, MDA-MB-468 cell line) was 4890 nM, the IC50 (134 cancer cell lines; Homo sapiens, MG-63, read-out: IC50 in cell proliferation assay, MG-63 cell line) was 377 nM and the IC50 (134 cancer cell lines; Homo sapiens, MIA PaCa-2, read-out: IC50 in cell proliferation assay, MIA PaCa-2 cell line) was 340 nM.
